Measurements reported in ChEMBL document CHEMBL1136297, “Synthesis and pharmacological evaluation of (Z)-9-(heteroarylmethylene)-7-azatricyclo[4.3.1.0(3,7)]decanes: thiophene analogues as potent norepinephrine transporter inhibitors” (Bioorg Med Chem Lett, 2003).

Assays:
[1] = Ratio of inhibitory activity against reuptake of norepinephrine ([3H]-NE) to that of serotonin ([3H]-5-HT)[…]; type: functional
[2] = target: Sodium-dependent serotonin transporter (Rattus norvegicus, UniProt P31652); test: Ability to inhibit reuptake of serotonin ([3H]5-HT) at serotonin transporter of rat midbrian
Sequence of Sodium-dependent serotonin transporter (P31652 whole entry): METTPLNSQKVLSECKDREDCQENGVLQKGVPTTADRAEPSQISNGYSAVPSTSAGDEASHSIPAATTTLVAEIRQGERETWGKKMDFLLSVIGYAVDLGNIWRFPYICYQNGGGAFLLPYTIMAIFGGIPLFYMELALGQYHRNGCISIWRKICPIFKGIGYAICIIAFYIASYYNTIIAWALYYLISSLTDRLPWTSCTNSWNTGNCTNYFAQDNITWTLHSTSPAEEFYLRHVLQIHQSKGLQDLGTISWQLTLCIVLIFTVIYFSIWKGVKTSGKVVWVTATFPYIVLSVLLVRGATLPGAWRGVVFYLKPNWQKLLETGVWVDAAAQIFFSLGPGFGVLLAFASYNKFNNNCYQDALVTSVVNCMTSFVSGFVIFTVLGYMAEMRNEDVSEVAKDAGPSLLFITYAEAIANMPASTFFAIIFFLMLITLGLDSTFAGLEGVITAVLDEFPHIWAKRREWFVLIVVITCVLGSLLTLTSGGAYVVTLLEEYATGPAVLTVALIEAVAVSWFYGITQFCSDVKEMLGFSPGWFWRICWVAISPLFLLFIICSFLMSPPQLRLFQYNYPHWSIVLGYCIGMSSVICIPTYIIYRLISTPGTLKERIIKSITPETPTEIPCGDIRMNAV

[3] = target: Norepinephrine transporter (Rattus norvegicus, UniProt Q9WTR4); test: Ability to inhibit reuptake of norepinephrine ([3H]NE) at norepinephrine transporter of rat parietal/occipital region
Sequence of Norepinephrine transporter (Q9WTR4 whole entry): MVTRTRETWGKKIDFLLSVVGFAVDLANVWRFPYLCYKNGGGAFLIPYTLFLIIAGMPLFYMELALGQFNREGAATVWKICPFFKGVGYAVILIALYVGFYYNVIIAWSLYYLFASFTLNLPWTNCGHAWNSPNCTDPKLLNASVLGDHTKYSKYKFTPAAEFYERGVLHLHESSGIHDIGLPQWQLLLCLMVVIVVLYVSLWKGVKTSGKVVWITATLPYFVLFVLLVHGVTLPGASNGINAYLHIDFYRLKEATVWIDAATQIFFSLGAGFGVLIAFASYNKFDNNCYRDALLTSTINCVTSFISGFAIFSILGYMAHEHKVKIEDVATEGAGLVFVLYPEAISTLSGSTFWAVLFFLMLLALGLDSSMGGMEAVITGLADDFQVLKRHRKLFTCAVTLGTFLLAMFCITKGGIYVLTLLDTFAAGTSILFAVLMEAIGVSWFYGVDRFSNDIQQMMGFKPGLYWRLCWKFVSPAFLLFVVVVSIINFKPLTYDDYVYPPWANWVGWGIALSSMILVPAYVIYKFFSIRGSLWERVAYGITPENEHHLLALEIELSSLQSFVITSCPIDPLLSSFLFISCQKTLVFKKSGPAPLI

[4] = target: Sodium-dependent dopamine transporter (Rattus norvegicus, UniProt P23977); test: Ability to inhibit reuptake of dopamine ([3H]DA) at dopamine transporter of rat striatum; type: tissue-based
Sequence of Sodium-dependent dopamine transporter (P23977 whole entry): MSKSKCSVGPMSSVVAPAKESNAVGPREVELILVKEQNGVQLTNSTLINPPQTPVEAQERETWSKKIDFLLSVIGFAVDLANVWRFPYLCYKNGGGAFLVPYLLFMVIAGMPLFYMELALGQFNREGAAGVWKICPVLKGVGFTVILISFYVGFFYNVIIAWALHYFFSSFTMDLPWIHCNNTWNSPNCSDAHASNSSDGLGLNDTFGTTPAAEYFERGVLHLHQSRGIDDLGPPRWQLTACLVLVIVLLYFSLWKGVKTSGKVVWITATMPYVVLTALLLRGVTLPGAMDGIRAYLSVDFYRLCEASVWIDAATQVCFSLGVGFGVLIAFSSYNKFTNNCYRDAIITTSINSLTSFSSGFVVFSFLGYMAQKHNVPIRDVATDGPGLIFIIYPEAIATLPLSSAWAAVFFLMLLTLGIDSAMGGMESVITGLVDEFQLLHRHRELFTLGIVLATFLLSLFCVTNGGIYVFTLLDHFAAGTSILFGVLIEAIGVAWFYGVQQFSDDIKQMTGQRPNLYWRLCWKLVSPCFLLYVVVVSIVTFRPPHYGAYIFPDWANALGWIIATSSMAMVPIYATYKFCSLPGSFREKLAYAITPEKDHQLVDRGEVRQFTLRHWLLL

[5] = Inhibition of reuptake of norepinephrine compared to dopamine.; type: functional
[6] = Inhibition of reuptake of serotonin compared to dopamine.; type: functional
[7] = Inhibition of reuptake of norepinephrine compared to serotonin.; type: functional

SMILES | Ratio [1] | Ki [2] [nM] | Ki [3] [nM] | Ki [4] [nM] | Ratio [5] | Ratio [6] | Ratio [7]
CCc1ccc(/C=C2\CN3C4CCC3C(C(=O)OC)C2C4)s1 (stereo unspecified) | 6.16 | 346 | 2130 | > 10000 | – | – | –
COC(=O)C1C2CC3CCC1N3C/C2=C\c1ccc(-c2ccc(OC)cc2)s1 (stereo unspecified) | – | 531 | 10.3 | 371 | 0.03 | 1.43 | 0.02
COC(=O)C1C2CC3CCC1N3C/C2=C\c1cccnc1 (stereo unspecified) | 2.77 | 4580 | 12700 | > 10000 | – | – | –
COC(=O)C1C2CC3CCC1N3C/C2=C\c1ccc(-c2ccccc2)s1 (stereo unspecified) | – | 71 | 13.5 | 179 | 0.08 | 0.4 | 0.19
COC(=O)C1C2CC3CCC1N3C/C2=C\c1ccc(-c2ccc(SC)cc2)s1 (stereo unspecified) | – | 3320 | 273 | 1650 | 0.16 | 2.01 | 0.08
COC(=O)C1C2CC3CCC1N3C/C2=C\c1ccsc1 (stereo unspecified) | – | 3140 | 33 | 485 | 0.07 | 6.47 | 0.01
COC(=O)C1C2CC3CCC1N3C/C2=C\c1ccc(Cl)s1 (stereo unspecified) | – | 53 | 9.7 | 130 | 0.07 | 0.41 | 0.18
CCCc1ccc(/C=C2\CN3C4CCC3C(C(=O)OC)C2C4)s1 (stereo unspecified) | – | 269 | 624 | 1600 | 0.39 | 0.17 | 2.32
COC(=O)C1C2CC3CCC1N3C/C2=C\c1ccc(-c2cccs2)s1 (stereo unspecified) | – | 48 | 98 | 298 | 0.33 | 0.16 | 2.04
COC(=O)C1C2CC3CCC1N3C/C2=C\c1ccccn1 (stereo unspecified) | – | 3150 | 115 | – | 0.11 | 2.97 | 0.04
COC(=O)C1C2CC3CCC1N3C/C2=C\c1ccc(Cl)nc1 (stereo unspecified) | 8.03 | 810 | 6510 | > 10000 | – | – | –
COC(=O)C1C2CC3CCC1N3C/C2=C\c1ccc(OC)s1 (stereo unspecified) | 4.12 | 544 | 2250 | > 10000 | – | – | –
CCCCc1ccc(/C=C2\CN3C4CCC3C(C(=O)OC)C2C4)s1 (stereo unspecified) | – | 665 | 364 | 4700 | 0.08 | 0.14 | 0.55
COC(=O)C1C2CC3CCC1N3C/C2=C\c1cnc(OC)nc1OC (stereo unspecified) | 1.84 | 5140 | 9450 | > 10000 | – | – | –
COC(=O)C1C2CC3CCC1N3C/C2=C\c1ccc(-c2ccc(Cl)s2)s1 (stereo unspecified) | – | 93 | 58 | 242 | 0.24 | 0.38 | 0.62
COC(=O)C1C2CC3CCC1N3C/C2=C\c1nccs1 (stereo unspecified) | 0.17 | > 10000 | 855 | 5090 | – | – | –
COC(=O)C1C2CC3CCC1N3C/C2=C\c1ccc(I)s1 (stereo unspecified) | – | – | – | – | 0.01 | 0.08 | 0.17
COC(=O)C1C2CC3CCC1N3C/C2=C\c1ccc(C)s1 (stereo unspecified) | – | – | – | – | 0.01 | 0.44 | 0.03
COC(=O)C1C2CC3CCC1N3C/C2=C\c1cccc(OC)n1 (stereo unspecified) | – | 477 | 308 | 14000 | 0.02 | 0.03 | 0.65
COC(=O)C1C2CC3CCC1N3C/C2=C\c1cccs1 (stereo unspecified) | – | – | – | – | 0.1 | 7.63 | 0.01
COC(=O)C1C2CC3CCC1N3C/C2=C\c1ccc(Br)s1 (stereo unspecified) | – | 36 | 20 | 147 | 0.14 | 0.24 | 0.57
COC(=O)C1C2CC3CCC1N3C/C2=C\c1cc(C)c(Br)s1 (stereo unspecified) | – | 6.75 | 36.8 | 1280 | 0.03 | 0.01 | 5.45
COC(=O)C1C2CC3CCC1N3C/C2=C\c1cnccn1 (stereo unspecified) | – | 7140 | 1930 | 6570 | 0.29 | 1.09 | 0.27
